EC50, ED50 and LC50 data for 5 compounds are collected here from ChEMBL document CHEMBL1150876, “Purpurediolin and purpurenin, two new cytotoxic adjacent bis-tetrahydrofuran annonaceous acetogenins from the seeds of Annona purpurea” (J Nat Prod, 1998).

One data set relates to PC-3. Briefly: Cytotoxicity against human PC3 cells after 7 days by MTT assay. The data set is classed as functional. As to conditions: for EC50: Homo sapiens, PC-3, 168 h, read-out: ED50 (the source's name).
Another data set deals with A498. Briefly: Cytotoxicity against human A498 cells after 7 days by MTT assay. As to conditions: for EC50: Homo sapiens, A498, 168 h, read-out: ED50 (the source's name). The data set is classed as functional.
The test system of the next data set is Artemia salina. Description: (§1) Toxicity in Artemia salina. The data set is classed as organism-based. As to conditions: in vivo.
For the next data set, the system named is A549. Description: Cytotoxicity against human A549 cells after 7 days by MTT assay. The data set is classed as functional. As to conditions: for EC50: Homo sapiens, A549, 168 h, read-out: ED50 (the source's name).
The subject of the next data set is HT-29. Description: Cytotoxicity against human HT-29 cells after 7 days by MTT assay. As to conditions: for EC50: Homo sapiens, HT-29, 168 h, read-out: ED50 (the source's name). The data set is classed as functional.
The test system of the next data set is MCF7. Briefly: Cytotoxicity against human MCF7 cells after 7 days by MTT assay. The data set is classed as functional. As to conditions: for EC50: Homo sapiens, MCF7, 168 h, read-out: ED50 (the source's name).
In a further data set the test system is MIA PaCa-2. Briefly: Cytotoxicity against human MIAPaCa2 cells after 7 days by MTT assay. The data set is classed as functional. As to conditions: for EC50: Homo sapiens, MIA PaCa-2, 168 h, read-out: ED50 (the source's name).
Data set [1] can be described thus: as §1. The data set is classed as organism-based. As to conditions: in vivo, read-out: ED50 (the source's name).

Values after ≈ are worked out from the molar mass of the structure shown.

For the compound `CCCCCCCCCC[C@H](O)[C@H]1CC[C@H]([C@H]2CC[C@H]([C@H](O)CCCC[C@H](O)CCCCC[C@@H](O)CC3=C[C@H](C)OC3=O)O2)O1` [ANNOGLAUCIN], the EC50 was determined as 0.356 µg/mL (≈ 0.557 µM) in the data set with PC-3; 1.01 µg/mL (≈ 1.58 µM) in the data set on A498; 1.08 µg/mL (≈ 1.69 µM) in the data set with A549; 1.56 µg/mL (≈ 2.44 µM) with MCF7; 1.45 µg/mL (≈ 2.27 µM) in the data set on MIA PaCa-2. For the same compound, the ED50 in the data set with Artemia salina came to 2.2 ×10⁻² ug/ml; with HT-29, 1 ×10⁻⁷ ug/ml.

Consider `CCCCCCCCCCCC[C@@H](O)[C@H]1CC[C@H]([C@H](O)CCCC[C@H](O)CCCCC[C@@H](O)CC2=CC(C)OC2=O)O1` (some centres undefined) [ANNONACIN], for which the ED50 with PC-3 came out at 1.33 µg/mL (≈ 2.23 µM); in the data set on A498, 1.16 µg/mL (≈ 1.94 µM); in the data set on A549, 1.32 µg/mL (≈ 2.21 µM); in the data set with HT-29 it was 1.18 µg/mL (≈ 1.98 µM); in the data set with MCF7, 1.96 µg/mL (≈ 3.28 µM); in the data set on MIA PaCa-2 it was 1.9 µg/mL (≈ 3.18 µM). In data set [1], the LC50 stood at 0.46 µg/mL (≈ 0.771 µM).

Turning to `COc1cccc2c1C(=O)c1c(O)c3c(c(O)c1C2=O)C[C@@](O)(C(=O)CO)C[C@@H]3O[C@H]1C[C@H](N)[C@H](O)[C@H](C)O1` [DOXORUBICIN], the EC50 in the data set with PC-3 was 0.0227 µg/mL (≈ 0.0418 µM); with A498, 0.00198 µg/mL (≈ 0.00364 µM); with A549, 0.00367 µg/mL (≈ 0.00675 µM); with HT-29, 0.00966 µg/mL (≈ 0.0178 µM); with MCF7 it was 0.212 µg/mL (≈ 0.39 µM); with MIA PaCa-2 it was 0.00145 µg/mL (≈ 0.00267 µM).

As for `CCCCC[C@H](O)[C@H](O)CCC[C@H](O)[C@H]1CC[C@H]([C@H]2CC[C@H]([C@H](O)CCCCCCCCCCCCC3=C[C@H](C)OC3=O)O2)O1` [PURPUREDIOLIN], the EC50 in the data set with PC-3 stood at 0.353 µg/mL (≈ 0.552 µM); in the data set with A498, 1.36 µg/mL (≈ 2.13 µM); with A549 it was 0.443 µg/mL (≈ 0.693 µM); in the data set on MCF7, 0.916 µg/mL (≈ 1.43 µM); in the data set with MIA PaCa-2, 1.44 µg/mL (≈ 2.25 µM). In addition, the ED50 in the data set on Artemia salina came to 7 ×10⁻² ug/ml; in the data set with HT-29, 1 ×10⁻⁷ ug/ml.

Turning to `CCCCC[C@H](O)CCCC[C@H](O)[C@H]1CC[C@H]([C@H]2CC[C@H]([C@H](O)CCCC[C@H](O)CCCCCCCC3=C[C@H](C)OC3=O)O2)O1` [PURPURENIN], the EC50 is 1.07 µg/mL (≈ 1.67 µM) in the data set on PC-3; 1.25 µg/mL (≈ 1.96 µM) with A498; 1.29 µg/mL (≈ 2.02 µM) with A549; 0.316 µg/mL (≈ 0.495 µM) in the data set on HT-29; 1.67 µg/mL (≈ 2.61 µM) in the data set on MCF7; 1.98 µg/mL (≈ 3.1 µM) with MIA PaCa-2. The ED50 with Artemia salina was 2.9 ×10⁻² ug/ml.
